{
  "source": "patent US8957016B2",
  "about": "“Tumor activated prodrugs” (Genspera, Inc., priority 2006, dated 2015)",
  "key": {"PSA": {"biological_target": "PSA (Homo sapiens, UniProt P07288)", "sequence (P07288 25-261)": "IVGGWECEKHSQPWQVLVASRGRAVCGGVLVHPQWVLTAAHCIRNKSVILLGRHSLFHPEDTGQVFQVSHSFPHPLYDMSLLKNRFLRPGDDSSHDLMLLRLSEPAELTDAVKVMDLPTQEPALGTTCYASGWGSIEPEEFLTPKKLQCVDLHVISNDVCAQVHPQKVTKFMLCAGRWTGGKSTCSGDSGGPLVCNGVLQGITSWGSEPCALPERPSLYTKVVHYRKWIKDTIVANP", "assay": "Kinetic parameters of fluorescent (AMC) PSA peptide substrates, Lineweaver Burke plots", "assay_type": "biochemical", "settings": "PSA 10 μg/ml, AMC-coupled peptide", "procedure": "These peptides were then incubated with PSA (10 μg/ml) and Michaelis Menton kinetic parameters determined using Lineweaver Burke plots, Table 3. In this study, Kcat/Km ratios were calculated in order to rank peptides. Newly synthesized peptides contained an acetyl protecting group (Ac) at the amino terminus, whereas the test peptide contained the protecting group morpholinylcarbonyl (Mu)."}, "[1]": {"biological_target": "sarcoplasmic reticulum (SR) and endoplasmic reticulum (ER) Ca2+-ATPase (SERCA) pump", "settings": "read-out: apparent dissociation constant; cited from earlier work"}},
  "note": "Where two headings read alike, the source gives them in different places. *1 amine or outer side, *2 acyl side, *3 side chain or, on linkers, in order; H or OH if unused. Where a SMILES comes first, the peptide text is derived from it. [ ]: non-standard residue; d: D form. The star is where a group is joined. AMC = Cc1cc(=O)oc2cc(N*)ccc12; Morpholide = C1CN(*)CCO1; CO = O=C([*:1])[*:2]",
  "data": [
    {"compound": "CC(=O)NCC(=O)N[C@@H](CCCCN)C(=O)N[C@@H](CO)C(=O)N[C@@H](CCC(N)=O)C(=O)N[C@@H](Cc1ccc(O)cc1)C(=O)N[C@@H](CCC(N)=O)C(=O)Nc1ccc2c(C)cc(=O)oc2c1", "note": "[Ac-GKSQYQ-AMC] (Ac-GKSQYQ-{AMC})", "values": [
      {"measurement": "kcat", "setting": "PSA", "value": 0.09, "unit": "s⁻¹"},
      {"measurement": "Km", "setting": "PSA; read-out: Km", "value": 343, "unit": "µM"}
    ]},
    {"compound": "CC(=O)NCC(=O)N[C@@H](CO)C(=O)N[C@@H](CO)C(=O)N[C@@H](CCCCN)C(=O)N[C@@H](Cc1ccccc1)C(=O)N[C@@H](CCC(N)=O)C(=O)Nc1ccc2c(C)cc(=O)oc2c1", "note": "[Ac-GSSKFQ-AMC] (Ac-GSSKFQ-{AMC})", "values": [
      {"measurement": "Km", "setting": "PSA", "value": 666, "unit": "µM"},
      {"measurement": "kcat", "setting": "PSA", "value": 0.057, "unit": "s⁻¹"}
    ]},
    {"compound": "CC(=O)NCC(=O)N[C@@H](CO)C(=O)N[C@@H](CO)C(=O)N[C@@H](CCCCN)C(=O)N[C@@H](Cc1ccc(O)cc1)C(=O)N[C@@H](CCC(N)=O)C(=O)Nc1ccc2c(C)cc(=O)oc2c1", "note": "[Ac-GSSKYQ-AMC] (Ac-GSSKYQ-{AMC})", "values": [
      {"measurement": "Km", "setting": "PSA", "value": 500, "unit": "µM"},
      {"measurement": "kcat", "setting": "PSA", "value": 0.113, "unit": "s⁻¹"}
    ]},
    {"compound": "CC(=O)NCC(=O)N[C@H](CO)C(=O)N[C@@H](C)C(=O)N[C@@H](CCCCN)C(=O)N[C@@H](Cc1ccc(O)cc1)C(=O)N[C@@H](CCC(N)=O)C(=O)Nc1ccc2c(C)cc(=O)oc2c1", "note": "[Ac-GsAKYQ-AMC] (Ac-G[dS]AKYQ-{AMC})", "values": [
      {"measurement": "Km", "setting": "PSA", "value": 653, "unit": "µM"},
      {"measurement": "kcat", "setting": "PSA", "value": 0.143, "unit": "s⁻¹"}
    ]},
    {"compound": "Cc1cc(=O)oc2cc(NC(=O)[C@H](CCC(N)=O)NC(=O)[C@H](CC(C)C)NC(=O)[C@H](CCCCN)NC(=O)[C@H](CO)NC(=O)[C@H](CO)NC(=O)[C@H](Cc3c[nH]cn3)NC(=O)N3CCOCC3)ccc12", "note": "[Mu-HSSKLQ-AMC, reference compound] ({Morpholide-CO}-HSSKLQ-{AMC})", "values": [
      {"measurement": "kcat", "setting": "PSA", "value": 0.011, "unit": "s⁻¹"}
    ]},
    {"compound": "C/C=C(/C)C(=O)O[C@H]1C(C)=C2[C@H]([C@@H]1OC(=O)CCCCCCC)[C@@](C)(OC(C)=O)C[C@H](OC(=O)CCC)[C@@]1(O)[C@H]2OC(=O)[C@@]1(C)O", "note": "[Thapsigargin]", "values": [
      {"measurement": "Kd", "setting": "[1]", "value": "≤ 2.2", "unit": "pM"}
    ]}
  ]
}
